Patent US20260115177A1, “MEDICINAL PRODUCTS AND METHODS FOR THE ALLEVIATION OF CANCER IMMUNOTHERA-PY-ASSOCIATED CYTOKINE RELEASE SYNDROME” (POOLBEG PHARMA (UK) LIMITED, priority 2023, published 2026)

Assays:
CAR T cells = test: T cell exhaustion markers TIM3 and LAG3 on CAR T cells in co-culture (flow cytometry); type: cell-based, human; conditions: CAR T:tumour cell co-culture, concentrations of Table 2
Protocol: UR-13870, Ralimetinib or Acumapimod are each added to a culture of CD19+ cancer cells (using a micropipette to transfer the correct volume to achieve the desired final concentration in Table 2).
CAR T cells are then added to the same culture 5-10 minutes later. In brief, CAR T cell concentrations per ml are determined and used to aliquot the desired number of CAR T cells into the culture to achieve the described 1:1 CAR T to cancer cell ratio.
The co-culture containing CAR T cells and tumour cells is swirled gently to ensure homogenous dispersion of cells throughout the vessel. The resultant co-culture is incubated for 24 to 96 hours in a closed incubator at 37° C. with 5% CO2 and a suitably humid atmosphere.
Both T cell surface markers T cell immunoglobulin and mucin domain-containing protein 3 (TIM3/CD366) and Lymphocyte Activation Gene 3 (LAG3/CD223) are associated with T cell exhaustion and disease progression during immunotherapy treatment. Advantageously, all of UR-13870, Ralimetinib and Acumapimod reduce both the number of TIM3+ CAR T cells, and the number of LAG3+ CAR T cells. […] For LAG3+, the results for Ralimetinib at a 5 μM concentration appear to have been affected by experimental failure, and these may be disregarded accordingly.

THP-1 monocytes = test: IL-6 ELISA of THP-1 monocytes treated with sCAR; type: cell-based, human; conditions: sCAR stimulation, 24 hours; concentrations of Table 2
Protocol: In Example 3 below, sCAR (or smCAR) is added using a micropipette to an in vitro culture of monocyte cells of the human monocytic cell line THP-1, available from the American Type Culture Collection. The culture is incubated in a closed incubator at 37° C. with 5% CO2 and a suitably humid atmosphere for approximately 24 hours, following which cytokine release is observed. p38 MAPK activation and cytokine release are confirmed by evaluation of the presence of IL-6 in THP-1 cells using an enzyme-linked immunosorbent assay (ELISA; for which a kit is suitably obtainable from Thermo Fisher Scientific of Kingfisher Dr, Swindon SN3 5BZ, UK).
(i) Monocytes sCAR (or smCAR), produced as described in Example 1 above, is added to a monoculture of THP-1 monocytes in the presence of UR-13870, Ralimetinib or Acumapimod at each of the concentrations shown in Table 2 above at 37° C., 5% CO2 and a suitably humid environment for 24 hours.
Supernatant levels of IL-6 from the THP-1 monocyte monoculture with sCAR (or smCAR) are determined by ELISA.

[1] = test system: PBMC-humanized NSG-MHC I/II double knock-out mice with Raji-Luc CD19-expressing cancer cells; test: In vivo (murine) model using CAR T for CRS induction; design: species or system mouse
Protocol: An outline of the timeline of the model is provided in FIG. 16; it commences on Study Day −5 and ends on Study Day 10.
Thus, on Study Day −5, 30 female 6- to 8-week-old NSG-(KbDb)null (IA)null mice are irradiated at 100 cGy. 4 hours later, on the same day (Study Day −5) they are each injected, via tail vein, with 0.25×10^6 Raji-Luc CD19-expressing cancer cells (a Raji wild-type cell line with stable and high expression of luciferase, enabling detection of cancer burden by […]).
On Study Day −2, clinical observation commences for all 30 mice (including body weight monitoring) and all 30 mice are imaged using in vivo […] imaging (IVIS). For IVIS, mice are intraperitoneally injected with 150 mg/kg D-Luciferin. 10 minutes after the D-Luciferin injection, mice are imaged dorsally and ventrally (auto exposure) using an IVIS Lumina system (obtainable from PerkinElmer of Chalfont Road, Seer Green, Beaconsfield, HP9 2FX, UK). Region of interest (ROI) are drawn for each mouse to capture its whole body, and total flux (p/s) is reported. IVIS imaging of all 30 mice continues on a biweekly basis throughout the study, thereby monitoring cancer cell burden. Daily clinical observation continues throughout the study, including observation of CRS, CRS being scored as follows:
25 of the mice are injected intraperitoneally, on Study Day 0, with 5×10^6 anti-CD19 CAR T cells in phosphate-buffered saline.
As a control, a group consisting of 5 of the mice (“Group 1”) are not administered CAR T cells. Beginning on Study Day −1 and ending on Study Day 9, Group 1 receive treatment with 0.5% (w:v) HPMC, 0.1% (w:v) Tween 80 in sWFI (vehicle/control), administered BID at 5 mL/kg.
The 25 mice administered CAR T cells are divided into groups of 5 mice per group. […]

Question: `OCCCn1cc2c(-c3ccc(F)cc3)c(-c3ccncc3)c(-c3ccc(F)cc3)nc2n1` [UR-13870, 6-bis(4-fluorophenyl)-5-(4-pyridinyl)-2Hpyrazolo[3,4-b]pyridine-2-propanol] was tested. Which “number of TIM3+ CAR T cells” value (CAR T cells) did it give?
Answer: The value was “reduce”.

Question: And the “number of LAG3+ CAR T cells” value (CAR T cells; Ralimetinib 5 μM results to be disregarded)?
Answer: The value was “reduce”.

Question: What about the “IL-6 secretion by THP-1 monocytes” value (THP-1 monocytes) of the same compound?
Answer: The value was “significantly reduce”.

Question: What about the “CAR T cell expansion (flow cytometry)” value ([1]; blood, Study Days 2, 6 and 10) of the same compound?
Answer: The value was “successfully maintained”.

Question: And the “CAR T cell therapy efficacy, tumour burden (IVIS)” value ([1]; day 7 and day 9, UR-13870 2, 10, 25 mg/kg BID s.c., Humira 5 mg/kg i.p. once)?
Answer: The value was “remained efficacious”.

Question: What about the “number of CAR T cells in circulation” value ([1]; day 10, high dose (25 mg/kg BID)) of the same compound?
Answer: Its value is “significantly enhanced”.
